Patent publication US20260159512A1, “BCAT2 INHIBITORS” (AGIOS PHARMACEUTICALS, INC., priority 2021, published 2026)
pIC50: −log10 of the molar value.

Tests used:
[1] = target: T1, BCAT2 (Homo sapiens, UniProt O15382); test: BCAT2 in vitro enzyme inhibition assay (resazurin/diaphorase-coupled fluorescence); format: biochemical; conditions: average where tested multiple times
T1 sequence (O15382 28-392): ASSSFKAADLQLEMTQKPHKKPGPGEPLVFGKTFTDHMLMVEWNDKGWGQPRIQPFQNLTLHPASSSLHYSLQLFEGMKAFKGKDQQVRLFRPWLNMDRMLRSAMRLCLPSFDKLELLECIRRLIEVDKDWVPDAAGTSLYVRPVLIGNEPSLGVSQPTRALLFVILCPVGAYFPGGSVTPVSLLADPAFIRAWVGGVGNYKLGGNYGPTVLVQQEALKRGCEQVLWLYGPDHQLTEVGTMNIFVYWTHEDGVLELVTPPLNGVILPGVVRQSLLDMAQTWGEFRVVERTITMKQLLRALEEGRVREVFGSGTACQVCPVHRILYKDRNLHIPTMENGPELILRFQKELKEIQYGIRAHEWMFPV
Outline: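 Coupled fluorescence readout: glutamate formed from L-leucine/α-ketoglutarate transamination drives GDH/NAD/diaphorase reduction of resazurin (Ex 540/Em 590). Human BCAT2 was first exposed 1 h at room temperature to compound, top final 100 μM in 3-fold, 10-point series; substrate reaction ran 1 h before SDS quench, in technical duplicate with DMSO max and enzyme-free min controls.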

[2] = target: T1, BCAT2; test: BCAT2 in vitro cell inhibition using engineered A549 cells (KMV cell assay, 13C6-KMV by LC-MS/MS); format: cell-based; set-up: The result was an engineered A549 cell line that expressed endogenous BCAT2; endogenous in cells; host or cells: A549 cells with MUT and BCAT1 knocked out by CRISPR/CAS9; key to BCAT2 Cell Inhibition: A: less than or equal to 0.100 μM; B: greater than 0.100 and less than or equal to 0.500 μM; C: greater than 0.500 and less than or equal to 1.000 μM; d: greater than 1.000 μM; E: no fit; conditions: average where tested multiple times

| pIC50 [1] | pIC50 [2] | BCAT2 Cell Inhibition [2] | Structure (SMILES) |
| --- | --- | --- | --- |
| 6.30 to 7.00 | < 6.00 | – | CC(C)Cc1nc2cnc(-c3nc[nH]n3)cc2n1[C@H]1CCC[C@@H](NC(=O)c2ncc(Cl)s2)[C@@H]1O [Example 251, 5-chloro-N-((1R,2S,3S)-2-hydroxy-3-(2-isobutyl-6-(1H-1,2,4-triazol-3-yl)-1H-imidazo[4,5-c]pyridin-1-yl)cyclohexyl)thiazole-2-carboxamide] |
| 6.30 to 7.00 | 6.30 to 7.00 | – | O=C(N[C@@H]1C[C@@H](O)C[C@H](n2c(-c3ccccc3F)nc3cnc(-c4ccccn4)cc32)C1)c1ncc(Cl)s1 [Example 253, 5-chloro-N-((1S,3R,5R)-3-(2-(2-fluorophenyl)-6-(pyridin-2-yl)-1H-imidazo[4,5-c]pyridin-1-yl)-5-hydroxycyclohexyl)thiazole-2-carboxamide] |
| ≥ 7.00 | 6.30 to 7.00 | – | O=C(N[C@@H]1C[C@@H](O)C[C@H](n2c(-c3ccccc3F)nc3cnc(-c4nc[nH]n4)cc32)C1)c1ccc(Cl)s1 [Example 255, 5-chloro-N-((1S,3R,5R)-3-(2-(2-fluorophenyl)-6-(1H-1,2,4-triazol-3-yl)-1H-imidazo[4,5-c]pyridin-1-yl)-5-hydroxycyclohexyl)thiophene-2-carboxamide] |
| 6.00 to 6.30 | – | E | CC(C)Cc1nc2cnc(-c3nc[nH]n3)cc2n1[C@H]1C[C@H](O)C[C@@H](NC(=O)c2ncc(Cl)s2)C1 [Example 257, 5-chloro-N-((1S,3R,5R)-3-hydroxy-5-(2-isobutyl-6-(1H-1,2,4-triazol-3-yl)-1H-imidazo[4,5-c]pyridin-1-yl)cyclohexyl)thiazole-2-carboxamide] |
| 6.30 to 7.00 | < 6.00 | – | O=C(N[C@@H]1C[C@@H](O)C[C@H](n2c(-c3ccccc3F)nc3cnc(-c4ncco4)cc32)C1)c1ncc(Cl)s1 [Example 261, 5-chloro-N-((1S,3R,5R)-3-(2-(2-fluorophenyl)-6-(oxazol-2-yl)-1H-imidazo[4,5-c]pyridin-1-yl)-5-hydroxycyclohexyl)thiazole-2-carboxamide] |
| < 6.00 | – | E | CC(C)Cc1nc2cnc(-c3ccccn3)cc2n1[C@@H]1C[C@H](NC(=O)c2ncc(Cl)s2)CN(C)C1 [Example 263, 5-chloro-N-((3S,5R)-5-(2-isobutyl-6-(pyridin-2-yl)-1H-imidazo[4,5-c]pyridin-1-yl)-1-methylpiperidin-3-yl)thiazole-2-carboxamide] |
| 6.30 to 7.00 | < 6.00 | – | CN1C[C@@H](NC(=O)c2ccc(Cl)s2)C[C@@H](n2c(-c3ccccc3F)nc3cnc(-c4nc[nH]n4)cc32)C1 [Example 265, 5-chloro-N-((3S,5R)-5-(2-(2-fluorophenyl)-6-(1H-1,2,4-triazol-3-yl)-1H-imidazo[4,5-c]pyridin-1-yl)-1-methylpiperidin-3-yl)thiophene-2-carboxamide] |
| 6.30 to 7.00 | – | E | O=C(N[C@H]1CCC[C@@H](n2c(-c3ccccc3F)nc3cnc(O[C@@H]4CCOC4)cc32)C1)c1ncc(Cl)s1 [Example 266, 5-chloro-N-((1S,3R)-3-(2-(2-fluorophenyl)-6-(((R)-tetrahydrofuran-3-yl)oxy)-1H-imidazo[4,5-c]pyridin-1-yl)cyclohexyl)thiazole-2-carboxamide] |
| < 6.00 | < 6.00 | – | Nc1cc2c(cn1)nc(-c1ccccc1F)n2[C@H]1C[C@H](O)C[C@@H](NC(=O)c2ncc(Cl)s2)C1 [Example 269, N-((1S,3R,5R)-3-(6-amino-2-(2-fluorophenyl)-1H-imidazo[4,5-c]pyridin-1-yl)-5-hydroxycyclohexyl)-5-chlorothiazole-2-carboxamide] |
| < 6.00 | – | E | O=C(N[C@@H]1C[C@@H](O)C[C@H](n2c(-c3ccccc3F)nc3cnccc32)C1)c1ncc(Cl)s1 [Example 271, 5-chloro-N-((1S,3R,5R)-3-(2-(2-fluorophenyl)-1H-imidazo[4,5-c]pyridin-1-yl)-5-hydroxycyclohexyl)thiazole-2-carboxamide] |
| 6.00 to 6.30 | – | E | CNc1cc2c(cn1)nc(-c1ccccc1F)n2[C@H]1C[C@H](O)C[C@@H](NC(=O)c2ncc(Cl)s2)C1 [Example 273, 5-chloro-N-((1S,3R,5R)-3-(2-(2-fluorophenyl)-6-(methylamino)-1H-imidazo[4,5-c]pyridin-1-yl)-5-hydroxycyclohexyl)thiazole-2-carboxamide] |
| < 6.00 | – | E | O=C(N[C@@H]1C[C@@H](O)C[C@H](n2c(-c3ccccc3F)nc3cnc(F)cc32)C1)c1ncc(Cl)s1 [Example 275, 5-chloro-N-((1S,3R,5R)-3-(6-fluoro-2-(2-fluorophenyl)-1H-imidazo[4,5-c]pyridin-1-yl)-5-hydroxycyclohexyl)thiazole-2-carboxamide] |
| < 6.00 | – | E | COc1cc2c(cn1)nc(-c1ccccc1F)n2[C@H]1C[C@H](O)C[C@@H](NC(=O)c2ncc(Cl)s2)C1 [Example 277, 5-chloro-N-((1S,3R,5R)-3-(2-(2-fluorophenyl)-6-methoxy-1H-imidazo[4,5-c]pyridin-1-yl)-5-hydroxycyclohexyl)thiazole-2-carboxamide] |
| < 6.00 | – | E | CNC(=O)c1cc2nc(CC(C)C)n([C@H]3CCC[C@@H](NC(=O)c4ncc(Cl)s4)[C@@H]3O)c2cn1 [Example 279, 5-chloro-N-((1R,2S,3S)-2-hydroxy-3-(2-isobutyl-6-(methylcarbamoyl)-3H-imidazo[4,5-c]pyridin-3-yl)cyclohexyl)thiazole-2-carboxamide] |
| 6.00 to 6.30 | – | E | CNC(=O)c1ccc2c(c1)nc(-c1ccccn1)n2C1CC(O)CC(NC(=O)c2ncc(C(F)F)s2)C1 (centres unmarked) [Example 294, 5-(difluoromethyl)-N-(3-hydroxy-5-(5-(methylcarbamoyl)-2-(pyridin-2-yl)-1H-benzo[d]imidazol-1-yl)cyclohexyl)thiazole-2-carboxamide] |
| < 6.00 | – | E | CC(C)Cc1nc2cnc(N3CCC[C@@H]3C(C)(C)O)cc2n1[C@@H]1CCC[C@H](NC(=O)c2ncc(Cl)s2)C1 [Example 304, 5-chloro-N-((1S,3R)-3-(6-((R)-2-(2-hydroxypropan-2-yl)pyrrolidin-1-yl)-2-isobutyl-1H-imidazo[4,5-c]pyridin-1-yl)cyclohexyl)thiazole-2-carboxamide] |
| < 6.00 | – | E | CC(C)Cc1nc2cnc(N3CCC[C@H]3C(N)=O)cc2n1[C@@H]1CCC[C@H](NC(=O)c2ncc(Cl)s2)C1 [Example 307, N-((1S,3R)-3-(6-((S)-2-carbamoylpyrrolidin-1-yl)-2-isobutyl-1H-imidazo[4,5-c]pyridin-1-yl)cyclohexyl)-5-chlorothiazole-2-carboxamide] |
| < 6.00 | – | E | CC(C)Cc1nc2cnc(N3CCC[C@@H]3C(N)=O)cc2n1[C@@H]1CCC[C@H](NC(=O)c2ncc(Cl)s2)C1 [Example 308, N-((1S,3R)-3-(6-((R)-2-carbamoylpyrrolidin-1-yl)-2-isobutyl-1H-imidazo[4,5-c]pyridin-1-yl)cyclohexyl)-5-chlorothiazole-2-carboxamide] |
| < 6.00 | – | E | CC(C)Cc1nc2cnc(N3CCC[C@H]3C#N)cc2n1[C@@H]1CCC[C@H](NC(=O)c2ncc(Cl)s2)C1 [Example 309, 5-chloro-N-((1S,3R)-3-(6-((S)-2-cyanopyrrolidin-1-yl)-2-isobutyl-1H-imidazo[4,5-c]pyridin-1-yl)cyclohexyl)thiazole-2-carboxamide] |
